Patent publication US20050129687A1, “Use of inhibitors of PACAP receptor activity for treatment of overactive bladder and pelvic floor pain syndrome” (University of Vermont and State Agricultural College, priority 2003, published 2005)
Where no end group is shown, it is not given here.

Tests used:
[1] = test system: rat with chronic CYP-induced cystitis; experiment: Conscious cystometry in rats with chronic CYP-induced cystitis; type: in vivo
Protocol: (§1) Chemical cystitis was induced in adult female Wistar rats by cyclophosphamide (CYP), which is metabolized to acrolein, an irritant eliminated in the urine. CYP (Sigma ImmunoChemicals, St. Louis, Mo.) was administered in one of the following ways: (1) 4 hr (150 mg/kg; i.p.) prior to euthanasia of the animals to elicit acute inflammation (n=6); (2) 48 hr (150 mg/kg; i.p.) prior to euthanasia to examine an intermediate inflammation (n=6) or (3) administered every third day for 10 days to elicit chronic inflammation (n=8; 75 mg/kg; i.p). All injections of CYP were performed under isoflurane (2%) anesthesia.
(§2) Rats were anesthetized with isoflurane anesthesia (2-3%) and the atlanto-occiptal membrane was exposed by aseptic surgical technique. Polyethylene tubing (PE-10, Clay Adams, Parsippany, N.J.) was inserted under the membrane and passed to the lumbosacral spinal cord (L6-S1). Correct catheter placement was confirmed at time of euthanasia. The intrathecal catheter was secured in place with a small drop of dental cement and the incision was closed in two layers. The intravesical catheter was then inserted.
(§3) A lower midline abdominal incision was performed under general anesthesia (ketamine 60 mg/kg, xylazine 10 mg/kg, i.p.), and polyethylene tubing (PE-50) with the end flared by heat was inserted into the dome of the bladder and secured in place with a 6-0 nylon purse string suture. The distal end of the tubing was sealed, tunneled subcutaneously and externalized at the back of the neck, out of the animal's reach. Abdominal and neck incisions were closed with 4-0 nylon sutures. Animals were maintained for 72 hours after survival surgery to ensure complete recovery.
(§4) Control rats and rats treated with CYP (acute; 4 hr or intermediate; 48 hr) or SCI rats and also treated with a specific PACAP antagonist, PACAP6-38 or vehicle (0.9% saline), were evaluated with cystometry. For conscious cystometry, a rat was placed unrestrained in a cage. Prior to the start of the recording, the bladder was emptied and the catheter was connected via a T-tube to a pressure transducer (Grass® Model PT300, West Warwick, R.I.) and microinjection pump (Harvard Apparatus 22, South Natick, Mass.). We infused a 0.9% saline solution at room temperature into the bladder at a rate of 10 ml/hour. Intravesical pressure was recorded continuously using a Neurodata Acquisition System (Grass® Model 15, Astro-Med, Inc, West Warwick, R.I.). At least four reproducible micturition cycles were recorded after the initial stabilization period of 25-30 minutes. The following cystometric parameters were recorded in each animal: filling pressure (pressure at the beginning of the bladder filling), threshold pressure (bladder pressure immediately prior to micturition), micturition pressure (the maximal bladder pressure during micturition), micturition interval (time between micturition events), void volume and presence or absence of non-voiding bladder contractions (NVC). For the present study, NVCs were defined as increases in bladder pressure of at least 7 cm H2O without release of urine.
The effects of a specific PAC1 receptor antagonist, PACAP6-38 (i.t. or intravesical) (Peninsula Pharmaceuticals) or vehicle (0.9% saline, i.t. or intravesical; artificial cerebrospinal fluid, aCSF, i.t.) on lower urinary tract function in rats treated with CYP (4 hr, 48 hr or chronic cystitis) were evaluated. Separate groups of rats were used to evaluate the effects of PACAP6-38 given either through the i.t. catheter or the intravesical catheter. After recording at least three reproducible micturition cycles, PACAP6-38 or saline was administered through the catheters (i.t. or intravesical) and the effects evaluated.
All values are means±S.E.M. Comparisons of urodynamic parameters between control and experimental treatments were made using the Fischer exact test. […]

tracheal muscles in cats = conditions: cited from earlier work
[2] = test system: rat with acute (4 hr) CYP-induced cystitis; experiment: Conscious cystometry in rat with acute (4 hr) CYP-induced cystitis, intravesical delivery; type: in vivo; conditions: 200 nmol intravesically
Protocol: as §1, §3
Control rats and rats treated with CYP (acute; 4 hr or intermediate; 48 hr) or SCI rats and also treated with a specific PACAP antagonist, PACAP6-38 or vehicle (0.9% saline), were evaluated with cystometry. […] Intravesical pressure was recorded continuously using a Neurodata Acquisition System (Grass® Model 15, Astro-Med, Inc, West Warwick, R.I.). At least four reproducible micturition cycles were recorded after the initial stabilization period of 25-30 minutes. The following cystometric parameters were recorded in each animal: filling pressure (pressure at the beginning of the bladder filling), threshold pressure (bladder pressure immediately prior to micturition), micturition pressure (the maximal bladder pressure during micturition), micturition interval (time between micturition events), void volume and presence or absence of non-voiding bladder contractions (NVC). […]

[3] = test system: rat with chronic spinal cord injury (SCI); experiment: Conscious cystometry in rats with chronic spinal cord injury (SCI); type: in vivo
Protocol: A complete spinal cord transaction was performed in adult, female rats anesthetized with isoflurane (2-3%). Animals received antibiotic and analgesic treatment following surgery. Animals were evaluated using conscious cystometry six-weeks following surgery when each animal had recovered automatic micturition. The University of Vermont IACUC approved all experimental procedures (protocol #02-108, 03-030, 03-148D) involving animal use. Animal care was under the supervision of the University of Vermont's Office of Animal Care in accordance with the Association for Assessment and Accreditation of Laboratory Animal Care and National Institutes of Health guidelines. All efforts were made to minimize animal stress/distress and suffering and to use the minimum number of animals. Currently, no alternatives exist to the use of whole, live animals in the present study.
as §2, §3, §4
All values are means±S.E.M. Comparisons of urodynamic parameters between control and experimental treatments were made using the […]. When F ratios exceeded the critical value (P≦0.05), the Dunnett's post-hoc test was used to compare the control mean with each experimental mean.

[4] = 1 nmol intrathecally, rat with chronic CYP-induced cystitis (FIG. 1)
[5] = acute (4 hr) CYP-induced cystitis (FIG. 4)
[6] = 1 nmol intrathecally, rat with chronic SCI
[7] = 1 nmol, SCI rats compared to SCI rats treated with vehicle (aCSF) (FIG. 7)

| Substance | persistence of drug effects after administration ([1]; 1 nmol intrathecally, rat with chronic CYP-induced cystitis) | appearance of non-voiding bladder contractions [1, 4] | intercontraction interval [1, 4] | intercontraction interval ([1]; rats treated chronically with CYP, 1 or 10 nmol (FIG. 3)) | Non-voiding bladder contractions per cycle (NVC/cycle) ([1]; rats treated chronically with CYP, compared to untreated rats with CYP-induced cystitis (FIG. 2)) | inhibitory-NANC (non-adrenergic, non-cholinergic) relaxation (tracheal muscles in cats) | persistence of drug effects after administration ([2]; acute (4 hr) CYP-induced cystitis) | appearance of non-voiding bladder contractions [2, 5] | intercontraction interval [2, 5] | Non-voiding bladder contractions [3, 6] | persistence of drug effects after administration [3, 6] | micturition pressures ([3]; 1 nmol intrathecally, rat with chronic SCI (FIGS. 5 and 6)) | Intermicturition pressure [3, 7] | micturition pressure [3, 7] | threshold pressure [3, 7] | effect of agonist on the PACAP6-38-induced change in intercontraction interval ([1]; rats treated chronically with CYP, after PACAP6-38 treatment) | effect of intrathecal agonist on the PACAP6-38-induced reduction of pressures ([3]; SCI rats, intrathecal, after PACAP6-38 (FIG. 7)) |
| --- | --- | --- | --- | --- | --- | --- | --- | --- | --- | --- | --- | --- | --- | --- | --- | --- | --- |
| Phe-Thr-Asp-Ser-Tyr-Ser-Arg-Tyr-Arg-Lys-Gln-Met-Ala-Val-Lys-Lys-Tyr-Leu-Ala-Ala-Val-Leu-Gly-Lys-Arg-Tyr-Lys-Gln-Arg-Val-Lys-Asn-Lys (FTDSYSRYRKQMAVKKYLAAVLGKRYKQRVKNK) [PACAP6-38] | at least 5 hours | reduced | increased | significantly lengthened | significantly reduced | partially but significantly inhibited | at least 2 hours | reduced | increased | not eliminated by treatment but reduced in pressure | at least 5 hours | reduced | reduced | reduced | reduced | – | – |
| Pituitary adenylate cyclase-activating polypeptide (HSDGIFTDSYSRYRKQMAVKKYLAAVLGKRYKQRVKNK; ends and bridges not checked) [PACAP, polypeptide hormone that stimulates adenylate cyclase in pituitary cells; used as agonist] | – | – | – | – | – | – | – | – | – | – | – | – | – | – | – | reversed | blocked this effect |
